Legend:
[1] = In vivo antagonist activity at Androgen receptor assessed as reduction in wax ester in golden hamster ear model; type: functional, Cricetinae; parameters: concentration or dose not given beside the values
Androgen receptor [2] = target: T1, Androgen receptor (Homo sapiens, UniProt P10275); assay: Antagonist activity at Androgen receptor in human MDA-kb2 cells; type: cell-based
T1 sequence (P10275 whole entry): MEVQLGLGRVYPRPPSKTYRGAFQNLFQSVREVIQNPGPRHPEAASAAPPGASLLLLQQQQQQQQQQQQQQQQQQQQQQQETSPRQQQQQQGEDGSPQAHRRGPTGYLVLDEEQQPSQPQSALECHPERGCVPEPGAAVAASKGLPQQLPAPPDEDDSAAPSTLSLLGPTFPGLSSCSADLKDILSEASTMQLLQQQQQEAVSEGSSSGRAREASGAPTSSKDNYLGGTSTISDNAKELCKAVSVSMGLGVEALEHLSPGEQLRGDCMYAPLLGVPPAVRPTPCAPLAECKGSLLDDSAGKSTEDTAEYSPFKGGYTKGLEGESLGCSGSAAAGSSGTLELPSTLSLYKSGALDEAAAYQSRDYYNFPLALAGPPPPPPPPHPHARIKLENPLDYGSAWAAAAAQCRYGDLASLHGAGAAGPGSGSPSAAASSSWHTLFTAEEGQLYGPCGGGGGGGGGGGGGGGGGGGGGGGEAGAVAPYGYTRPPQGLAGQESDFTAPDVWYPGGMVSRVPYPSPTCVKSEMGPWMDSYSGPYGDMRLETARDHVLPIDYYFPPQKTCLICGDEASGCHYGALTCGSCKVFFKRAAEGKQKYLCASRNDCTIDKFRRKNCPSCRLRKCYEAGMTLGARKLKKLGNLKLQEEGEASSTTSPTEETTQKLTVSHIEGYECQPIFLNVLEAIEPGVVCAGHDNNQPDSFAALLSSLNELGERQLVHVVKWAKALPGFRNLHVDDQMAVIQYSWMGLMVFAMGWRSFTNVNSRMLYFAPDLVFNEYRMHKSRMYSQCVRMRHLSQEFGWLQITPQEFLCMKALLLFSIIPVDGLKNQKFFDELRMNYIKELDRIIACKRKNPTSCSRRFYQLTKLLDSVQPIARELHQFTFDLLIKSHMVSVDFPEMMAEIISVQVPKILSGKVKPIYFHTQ

Androgen receptor [3] = target: T1, Androgen receptor; assay: Binding affinity to human Androgen receptor
Androgen receptor [4] = target: T1, Androgen receptor; assay: Antagonist activity at Androgen receptor in human MDA-MB-453 cells measured by SEAP reporter gene assay; type: cell-based
Androgen receptor [5] = target: T1, Androgen receptor; assay: Antagonist activity at Androgen receptor in human LNCaP cells measured by SEAP reporter gene assay; type: cell-based
Androgen receptor [6] = target: T1, Androgen receptor; assay: Displacement of [3H]DHT from Androgen receptor expressed in human MDA-MB-453 cells; type: cell-based
[7] = In vivo agonist activity at Androgen receptor in male rat assessed as increase in levator ani muscle weight at 2 mg/kg, po administered for 5 days; type: functional; settings: time 5 day
[8] = In vivo agonist activity at Androgen receptor in male rat assessed as increase in prostate weight at 2 mg/kg, po administered for 5 days; type: functional; settings: time 5 day
Androgen receptor [9] = target: T1, Androgen receptor; assay: Agonist activity to human Androgen receptor in African green monkey COS-7 cells measured by luciferase reporter assay; type: cell-based
Rattus norvegicus [10] = assay: Anti-androgenic activity in testosterone-treated castrated rat assessed as reduction in prostate weight at 2 mg administered orally per day for 5 days; type: functional; parameters: Activity: scale not given: the % may be the effect or the level left; settings: route po, time 5 day; for Activity: at 2 mg
[11] = target: GABA-A receptor; anion channel; assay: Binding affinity to GABA A receptor (unknown origin); type: protein-complex assay, Homo sapiens
Androgen receptor [12] = target: T1, Androgen receptor; assay: Binding affinity to human Androgen receptor measured by fluorescence polarization assay
Androgen receptor [13] = target: T1, Androgen receptor; assay: Binding affinity to Androgen receptor (unknown origin); settings: read-out: IC50
[14] = target: T2, Protein cereblon/Androgen receptor/Cullin-4A (Homo sapiens, UniProt P10275+Q96SW2+Q13619); assay: Protac activity at CRBN/Cullin 4A/Androgen receptor in human VCaP cells assessed as Androgen receptor degradation; type: cell-based
T2 sequence (Q96SW2 whole entry, one chain of several): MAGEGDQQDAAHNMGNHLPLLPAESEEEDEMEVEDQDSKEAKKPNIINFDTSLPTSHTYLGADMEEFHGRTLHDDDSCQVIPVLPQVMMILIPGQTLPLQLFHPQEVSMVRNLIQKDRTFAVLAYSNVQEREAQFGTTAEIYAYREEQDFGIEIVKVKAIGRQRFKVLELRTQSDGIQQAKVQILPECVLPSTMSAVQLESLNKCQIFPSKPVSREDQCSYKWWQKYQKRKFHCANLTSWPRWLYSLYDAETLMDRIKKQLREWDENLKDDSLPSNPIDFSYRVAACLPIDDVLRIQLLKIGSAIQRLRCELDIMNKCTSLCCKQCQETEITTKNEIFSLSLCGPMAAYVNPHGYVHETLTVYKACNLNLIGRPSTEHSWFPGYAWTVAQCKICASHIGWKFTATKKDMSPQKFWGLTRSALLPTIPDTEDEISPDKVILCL
T2 sequence (Q13619 whole entry, one chain of several): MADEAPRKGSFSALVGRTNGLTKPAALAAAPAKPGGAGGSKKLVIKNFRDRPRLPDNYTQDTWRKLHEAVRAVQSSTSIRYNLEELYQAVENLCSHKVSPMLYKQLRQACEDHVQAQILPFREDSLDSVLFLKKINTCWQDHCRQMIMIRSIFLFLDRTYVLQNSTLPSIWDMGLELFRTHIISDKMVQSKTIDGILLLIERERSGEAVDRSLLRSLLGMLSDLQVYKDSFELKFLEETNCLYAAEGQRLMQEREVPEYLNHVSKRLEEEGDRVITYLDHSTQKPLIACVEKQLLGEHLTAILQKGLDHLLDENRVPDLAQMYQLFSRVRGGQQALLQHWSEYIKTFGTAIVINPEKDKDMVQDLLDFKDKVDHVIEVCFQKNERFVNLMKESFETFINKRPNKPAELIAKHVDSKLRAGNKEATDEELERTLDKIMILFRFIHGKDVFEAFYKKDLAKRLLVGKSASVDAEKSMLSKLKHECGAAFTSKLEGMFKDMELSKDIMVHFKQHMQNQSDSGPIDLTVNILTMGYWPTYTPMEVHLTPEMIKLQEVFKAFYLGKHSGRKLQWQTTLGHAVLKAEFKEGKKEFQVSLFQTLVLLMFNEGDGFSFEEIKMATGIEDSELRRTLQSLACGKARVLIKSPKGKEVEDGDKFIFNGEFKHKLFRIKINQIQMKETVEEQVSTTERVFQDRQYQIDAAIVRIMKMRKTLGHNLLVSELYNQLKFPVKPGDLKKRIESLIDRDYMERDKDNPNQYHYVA

[15] = target: T2, Protein cereblon/Androgen receptor/Cullin-4A; assay: Protac activity at CRBN/Cullin 4A/Androgen receptor in human LNCaP cells assessed as Androgen receptor degradation; type: cell-based
[16] = Oral bioavailability in mouse; type: ADME, organism-based; settings: in vivo
Rattus norvegicus [17] = assay: Anti-androgenic activity in male Wistar rat assessed as decrease in ventral prostate weight at 10 mg/kg, po administered for 15 days; type: functional; parameters: Activity: scale not given: the % may be the effect or the level left; settings: time 15 day
Androgen receptor [18] = target: T1, Androgen receptor; assay: Agonist activity at human Androgen receptor
Androgen receptor [19] = target: T1, Androgen receptor; assay: Displacement of [3H]methyltrienolone from Androgen receptor expressed in human MDA-MB-453 cells; type: cell-based
[20] = In vivo agonist activity at Androgen receptor in castrated male rat assessed as increase in prostate weight at 0.75 mg/kg, po administered for 14 days; type: functional; settings: time 14 day
[21] = In vivo agonist activity at Androgen receptor in castrated male rat assessed as increase in levator ani muscle weight at 0.75 mg/kg, po administered for 14 days; type: functional; settings: time 14 day
[22] = Antiproliferative activity against refractory human prostate cancer cells; type: functional, cell-based; settings: Prostate tumor cell line
Androgen receptor [23] = target: Androgen receptor (Mus musculus, UniProt P19091); assay: Agonist activity at Androgen receptor (unknown origin) transfected in mouse C2C12 cells measured by luciferase reporter assay; type: cell-based
Sequence of Androgen receptor (Mus musculus, UniProt P19091) (P19091 whole entry): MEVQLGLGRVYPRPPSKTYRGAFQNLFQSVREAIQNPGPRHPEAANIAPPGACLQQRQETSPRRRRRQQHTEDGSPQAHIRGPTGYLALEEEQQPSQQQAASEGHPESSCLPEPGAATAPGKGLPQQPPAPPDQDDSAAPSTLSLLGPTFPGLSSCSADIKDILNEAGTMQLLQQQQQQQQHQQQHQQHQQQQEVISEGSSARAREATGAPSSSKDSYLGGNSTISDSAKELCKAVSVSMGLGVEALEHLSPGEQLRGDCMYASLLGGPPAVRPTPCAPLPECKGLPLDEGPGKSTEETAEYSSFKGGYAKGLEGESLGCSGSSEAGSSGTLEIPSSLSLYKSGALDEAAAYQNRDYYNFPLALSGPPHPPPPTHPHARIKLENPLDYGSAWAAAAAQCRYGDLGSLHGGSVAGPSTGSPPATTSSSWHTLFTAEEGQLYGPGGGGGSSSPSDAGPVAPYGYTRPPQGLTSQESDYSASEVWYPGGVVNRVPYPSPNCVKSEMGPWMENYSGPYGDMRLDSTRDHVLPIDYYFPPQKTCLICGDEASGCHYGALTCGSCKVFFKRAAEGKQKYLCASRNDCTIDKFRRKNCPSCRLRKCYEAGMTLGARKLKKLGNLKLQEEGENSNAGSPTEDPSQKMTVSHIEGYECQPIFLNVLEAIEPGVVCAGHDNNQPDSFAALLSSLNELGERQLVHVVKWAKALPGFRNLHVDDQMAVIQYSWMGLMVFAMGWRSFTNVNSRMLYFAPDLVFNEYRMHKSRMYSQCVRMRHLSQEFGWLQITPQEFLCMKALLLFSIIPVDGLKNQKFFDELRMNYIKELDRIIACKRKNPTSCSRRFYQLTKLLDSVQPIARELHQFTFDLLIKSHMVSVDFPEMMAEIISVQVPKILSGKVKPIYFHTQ

[24] = target: T3, Androgen receptor (Homo sapiens) (UniProt P10275); assay: Induction of degradation of Androgen receptor in human LNCaP cells; type: cell-based
T3 sequence (whole entry): T1 sequence (P10275 whole entry)

LNCaP = assay: Antiproliferative activity against human LNCaP cells; type: functional, cell-based

In the case of `CC(c1ccccc1)N(C)c1ccc(C#N)c(C(F)(F)F)n1` (stereo unspecified), the Activity [1] is reported as 83%, the IC50 (Androgen receptor [2]) is reported as 45 nM and the IC50 (Androgen receptor [3]) is reported as 20 nM.
Molecule `N#Cc1ccc(N2C(=O)[C@H]3[C@@H]4C[C@@H](CN4C(=O)Oc4ccc(F)cc4)N3C2=O)cc1C(F)(F)F` has an IC50 (Androgen receptor [4]) of 350 nM, an IC50 (Androgen receptor [5]) of 3920 nM and a Ki (Androgen receptor [6]) of 18 nM.
With `Cc1c(/N=C2\N=C(N)N3N=C(C(F)(F)F)C[C@@]23C)ccc(C#N)c1C(F)(F)F` the Activity [7] was 91% and the Activity [8] was 36%.
In the case of `N#Cc1ccc(N2CCC[C@@H]2[C@@H](O)C(F)(F)F)cc1C(F)(F)F` [VK5211], the Ki (Androgen receptor [3]) is reported as 1 nM.
In the case of `Cc1c(N2CC[C@](C)(O)[C@@H]2C)ccc(C#N)c1Cl`, the EC50 (Androgen receptor [9]) is reported as 0.29 nM and the IC50 (Androgen receptor [3]) is reported as 1 nM.
Molecule `CC(O)(c1nc2cc(Cl)c(Cl)cc2[nH]1)C(F)(F)F` (stereo unspecified) has an ID50 (Rattus norvegicus [10]) of 0.32 mg/day and an Activity (Rattus norvegicus [10]) of 96%.
In the case of `N#Cc1ccc(-c2ccccc2O)cc1C(F)(F)F`, the Activity [1] is reported as 86% and the IC50 (Androgen receptor [2]) is reported as 0.2 nM.
For `CNC(=O)c1ccc(N2C(=S)N(c3cnc(C#N)c(C(F)(F)F)c3)C(=O)C23CCC3)cc1F` [APALUTAMIDE], the IC50 [11] was 3000 nM.
Work on `Cc1c(N[C@@H](c2ccc(-c3ccc(C#N)cc3)o2)[C@H](C)O)ccc(C#N)c1Cl` yielded a Ki (Androgen receptor [12]) of 7 nM.
Work on `CC(O)(C[S+]([O-])c1ccc(Cl)c(Cl)c1)c1cc2cc(Cl)c(C(F)(F)F)cc2[nH]1` (stereo unspecified) yielded an IC50 (Androgen receptor [13]) of 100 nM.
`CC1(C)[C@H](NC(=O)c2ccc(N3CCN(CC4CCN(c5ccc6c(c5)C(=O)N(C5CCC(=O)NC5=O)C6=O)CC4)CC3)cc2)C(C)(C)[C@H]1Oc1ccc(C#N)c(Cl)c1` (stereo partly specified) showed a DC50 [14] of 0.28 nM, a DC50 [15] of 8.3 nM and a bioavailability [16] of 67%.
`C[C@@H]1CN(c2ccc(C#N)c(C(F)(F)F)c2)[C@@H](C)CN1C(=O)Nc1ccc(C(F)(F)F)nc1` gave an ED50 (Rattus norvegicus [17]; Rattus norvegicus, Wistar, 360 h) of 2.2 mg/kg/day and an Activity (Rattus norvegicus [17]; dose 10 mg/kg) of 67%.
`CC(C)(C)OC(=O)c1cccc2oc(=O)c3c(ccc4[nH]c(=O)cc(C(F)(F)F)c43)c12` showed an EC50 (Androgen receptor [18]) of 1.1 nM and a Ki (Androgen receptor [3]) of 8.7 nM.
`CN1C(=O)C(F)=C[C@]2(C)[C@H]3CC[C@]4(C)[C@@H](C(=O)NCc5nc6cccnc6[nH]5)CC[C@H]4[C@@H]3CC[C@@H]12` [MK-0773] gave an IC50 (Androgen receptor [19]) of 6.6 nM.
In the case of `Cc1c(N2C3CCC2CC(C)(O)C3)ccc(C#N)c1Cl` (stereo unspecified), the Activity [20] is reported as 21%, the Activity [21] is reported as 68% and the IC50 (Androgen receptor [3]) is reported as 1 nM.
In the case of `N#Cc1ccc(-n2c(=O)n(Cc3ccccc3)c3ccccc32)cc1C(F)(F)F`, the IC50 [22] is reported as 170 nM.
Molecule `CO[C@@H]1C(c2ccc(C#N)c(Cl)c2C)=NN2CC[C@H](O)[C@@H]12` has an EC50 (Androgen receptor [23]) of 0.5 nM.
Molecule `C[C@@H]1CC[C@H]([C@@H](O)C(F)(F)F)N1c1ccc2[nH]c(=O)cc(C(F)(F)F)c2c1` [LGD-2941] has a Ki (Androgen receptor [3]) of 6.5 nM.
For `N#Cc1ccc([C@H]2CCCC[C@H]2O)cc1C(F)(F)F`, the Activity [1] was 85%, the IC50 (Androgen receptor [2]) was 90 nM and the IC50 (Androgen receptor [3]) was 26 nM.
With `Cc1ccccc1Oc1ccc(C#N)c(Cl)c1` the Activity [1] was >87%.
In the case of `CC1(C)C(=O)N(c2ccc(C#N)c(C(F)(F)F)c2)C(=S)N1CCCC(=O)NCCOCCOC(=O)CC12CC3CC(CC(C3)C1)C2`, the Activity [24] is reported as > 50%.
`Fc1ccc(Cn2c(CC(F)(F)F)nc3cc(Cl)c(Cl)cc32)cc1` gave an ID50 (Rattus norvegicus [10]) of 0.13 mg/day and an Activity (Rattus norvegicus [10]) of 84%.
For `Cc1c(N2C(=O)[C@@H]3[C@H](O)CCN3C2=O)ccc(C#N)c1Cl`, the EC50 (Androgen receptor [23]) was 2.3 nM.
Molecule `CC(O)(CS(=O)(=O)c1ccc(F)cc1)C(=O)Nc1ccc(C#N)c(C(F)(F)F)c1` (stereo unspecified) [BICALUTAMIDE] has an IC50 (LNCaP) of 160 nM.
